Data: US20260248717A1, “METHOD OF TREATING LOWER TRACT UROTHELIAL CANCER” (TARIS Biomedical LLC, priority 2016, published 2026)

Columns and labels:
[1] = in vivo
Protocol: The ongoing Phase 1b study, TAR-200-101, is designed to evaluate the safety and tolerability of up to 2 dose cycles of gemcitabine administered intravesicularly at a dose of 225 mg for 7 days separated by a rest period of 14 days using the GemRIS system, over a 28-day period in patients with confirmed muscle-invasive transitional cell carcinoma of the bladder (>/=clinical and pathologic stage pT2a), who are scheduled to undergo radical cystectomy (RC) with concomitant lymphadenectomy.
Gemcitabine Releasing Intravesical System (GemRIS) is placed into the bladder through an inserter on Study Day 0 and is removed on Study Day 7. GemRIS releases gemcitabine gradually during the 7 day indwelling time. A second GemRIS is placed in the bladder on Study Day 21 and is removed on Study Day 28 which is the day of the TURBT. GemRIS is a passive, nonresorbable gemcitabine-releasing intravesicular (intravesical) system whose primary mode of action is the controlled release of gemcitabine into the bladder over a 7 day period.
The primary outcome measures are the number of participants with treatment emergent adverse events (TEAEs) coded with MedDRA and graded for severity with CTCAE v4.0. The secondary outcome measures are the number and percentage of participants who are tolerant of GemRIS indwelling on days 1-7 and 21-28. Plasma and urine levels of dFdC and dFdU are also measured. […] Cmax, plasma dFdU Analysis of Cmax (maximum concentration achieved over time) of diflourodeoxyuridine (dFdU) in plasma. [Time Frame: From Day 0 up to Day 28] • 6. Tmax, plasma dFdU. Analysis of Tmax (Day at which maximum concentration was achieved) of diflourodeoxyuridine (dFdU) in plasma. [Time Frame: From Day 0 up to Day 28] • 7. Cavg, plasma dFdU. Analysis of Descriptive statistics (e.g. sample size, mean and median, quartiles, minimum and maximum and box plots) of the concentration of diflourodeoxyuridine (dFdU) in plasma. [Time Frame: From Day 0 up to Day 28] • 8. Cmax, plasma dFdC. Analysis of Cmax (maximum concentration achieved over time) of gemcitabine (deoxydifluorocytidine hydrochloride dFdC) in plasma. [Time Frame: From Day 0 up to Day 28] • 9. Tmax, plasma dFdC. Analysis of Tmax (Day at which maximum concentration was achieved) of gemcitabine (deoxydifluorocytidine hydrochloride—dFdC) in plasma [Time Frame: From Day 0 up to Day 28] • 10. Cavg, plasma dFdC. Analysis of Descriptive statistics (e.g. sample size, mean and median, quartiles, minimum and maximum and box plots) of the concentration of gemcitabine (deoxydifluorocytidine hydrochloride—dFdC) in plasma [Time Frame: From Day 0 up to Day 28]. • 11. Cmax, urine dFdU (Arm 1 only). Analysis of Cmax (maximum concentration achieved over time) of diflourodeoxyuridine (dFdU) in urine. [Time Frame: From Day 0 up to Day 28] • 12. Tmax, urine dFdU (Arm 1 only). Analysis of Cmax (maximum concentration achieved over time) of diflourodeoxyuridine (dFdU) in urine. [Time Frame: From Day 0 up to Day 28] • 13. Tmax, urine dFdU (Arm 1 only). Analysis of Cmax (maximum concentration achieved over time) of diflourodeoxyuridine (dFdU) in urine. [Time Frame: From Day 0 up to Day 28] • 14. Cavg, urine dFdU (Arm 1 only). Analysis of Descriptive statistics (e.g. sample size, mean and median, quartiles, minimum and maximum and box plots) of the concentration of diflourodeoxyuridine (dFdU) in urine. [Time Frame: From Day 0 up to Day 28] • 15. Cmax, urine dFdC (Arm 1 only).

[2] = Comparison of urine gemcitabine and dFdU between minipig study and human phase IB study; type: in vivo; details: for urine concentrations: mini pig study versus human phase IB study (FIG. 10)
[3] = Pilot pharmacokinetic study, 14C-gemcitabine perfused via intra-urinary bladder cannula; type: in vivo, male Sprague-Dawley rats; details: 3.85 mg/mL, 300 μL/hr
Protocol: A pilot study performed was using male Sprague-Dawley rats to determine the pharmacokinetics and pharmacodynamics properties of administering gemcitabine locally and continuously to the bladder. Rats were fitted with intra-urinary bladder cannula (IUBC) and radiolabeled ^14C-gemcitabine was perfused for 6 or 24 hours at a rate of 300 μL/hr at a concentration of 3.85 mg/mL of gemcitabine. The concentration of gemcitabine in various tissue layers were measured.

[4] = tested on: T24 human bladder cancer cells; assay: Orthotopic bladder cancer model in rats, continuous gemcitabine perfusion of the bladder; type: in vivo, Athymic nude rats
Text: After day 11, the bladders were removed and subject to histological analysis.

[5] = Minipig model, local continuous gemcitabine from an intravesical device for one week; type: in vivo, minipigs; details: device removed at day 7; tissue levels estimated from gemcitabine and active metabolite in urine (FIG. 2)
Protocol: A minipig model was developed to investigate the effect of administering gemcitabine to the bladder locally and continuously using an intravesicular (intravesical) device. For this study, gemcitabine was continuously administered to minipigs for one week using an intravesicular (intravesical) device. The intravesicular (intravesical) device was removed at day 7. The concentration of gemcitabine and active metabolite was measured in the urine of the minipigs following removal of the device. Based upon the level of gemcitabine and active metabolite in the urine, the therapeutic gemcitabine levels in the bladder tissue were estimated.

[6] = rat, in vivo
Protocol: An orthotopic bladder cancer model was developed in rats to allow evaluation of the efficacy of continuous administration of gemcitabine to the bladder on treatment of a human bladder cancer cell line. Athymic nude rats were cannulated on day 0. The rats were injected with fluorescently labeled T24 human bladder cancer cells on day 3. On day 5 of the study, tumors were observable. Gemcitabine perfusion started on day 6 and continued until day 11. Three concentrations of gemcitabine were tested: 90 μg/ml, 180 μg/ml, and 350 μg/ml.

[7] = tested on: NBT-II rat bladder tumor cells; assay: Syngeneic rat bladder tumor model, immune effects of continuous local gemcitabine; type: in vivo, Wistar rats
Protocol: A syngeneic rat model was developed to assess treatment efficacy and immune effects of continuous local administration to the bladder. Wistar rats were cannulated on day 0 and injected with NBT-II rat bladder tumor cells on day 3. Tumors were allowed to grow for 5 days prior to the start of perfusion on day 8. On days 8-13 of the study gemcitabine was perfused at a concentration of 90 μg/ml or 180 μg/ml. The rats were euthanized on day 14. Samples from the tumor, spleen, blood and plasma were collected for histopathology and immunohistochemistry, flow cytometry, and cytokine profiling.
The level of activated CD8+ and CD4+ T cells were also measured in the tumor microenvironment compared to the level of CD+4 and CD8+ regulatory cells.
Plasma TGFβ and IL-10 levels were also measured following delivery of gemcitabine. […] Inhibition of TGFβ is known to impair Treg activation.

SMILES | plasma concentrations of dFdU (quantifiable samples) [1] [ng/mL] | plasma samples with low but quantifiable dFdU [1] | urine levels [1] | urine concentrations [2] | distribution of radiolabel among bladder tissue layers ([3]; perfused for 6 or 24 hours) | penetration into bladder tissue layers ([3]; perfused for 6 or 24 hours (FIG. 3)) | tumor volume compared to untreated control (tumor size as net average intensity, FIG. 1) ([4]; 90 μg/ml gemcitabine, continuous perfusion day 6 to day 11, five day study period) | anti-tumor effect with increasing concentration ([4]; 90 μg/ml, 180 μg/ml and 350 μg/ml gemcitabine perfusion) | therapeutically relevant gemcitabine levels in bladder tissue after device removal [5] | plasma concentrations of gemcitabine ([1]; human) [ng/mL] | levels of gemcitabine excreted in the urine ([2]; minipig study versus human phase IB trial (FIG. 9)) | hematuria [6] | urine and blood parameters [6] | plasma TGFβ level compared to control animals ([7]; 180 μg/mL gemcitabine (FIG. 6)) | plasma IL-10 level ([7]; 180 μg/mL gemcitabine, versus untreated control rats (FIG. 7)) | level of activated CD4+ and CD8+ cells in the spleen ([7]; gemcitabine perfusion days 8-13, versus untreated control rats (FIG. 5)) | ratio of regulatory T cells to activated CD4+ and CD8+ T cells in the tumor microenvironment ([7]; perfusion 90 or 180 μg/mL, days 8-13 (FIG. 4))
O=c1ccn(C2OC(CO)C(O)C2(F)F)c(=O)[nH]1 (stereo not shown) [dFdU, diflourodeoxyuridine] | 104 to 284 | 10 of 55 | measurable | comparable |  |  |  |  |  |  |  |  |  |  |  |  | 
Nc1ccn([C@@H]2O[C@H](CO)[C@@H](O)C2(F)F)c(=O)n1 [gemcitabine, 2′,2′-difluorodeoxycytidine] |  |  | measurable | comparable | most concentrated in the adventitia and epithelium, followed by muscle and lamina propria | able to penetrate into deeper bladder tissues | significant reduction in tumor volume | increased with administration of increasing concentrations | persisted well after the device was removed | < 100 | comparable | observed in all perfusion animals | No major significant differences | decreased | increased | increased | decreased
